Measurements published in patent US6372493B1, “Hormone-secreting cells maintained in long-term culture” (Pacific Biomedical Research, Inc. [Cell Mart, Inc.], priority 1991, dated 2002).

Columns and labels:
[1] = system: Human pancreas cell cultures, 55 generations; assay: Time course of insulin secretion in response to glucose (Example 18); assay type: cell-based
Experimental: Human pancreas cell cultures from Example 16 were maintained in continuous culture through 55 generations, at which time they had been in culture for 12 months.
Two hours prior to the experiment, the cells were centrifuged at 1070 rpm for 5 minutes and then resuspended in glucose-poor medium consisting of 1 part DMSS plus 6 parts PDM. The cells were incubated in glucose-poor medium (glucose-starved) at a concentration of about 1.5×10^6 cells/ml in 10 ml culture flasks for two hours at 37°.
The cells were then centrifuged and resuspended in the experimental medium consisting of one part DMSS and six parts PDM. The glucose concentration in the experimental medium alone was 1.1 mM. To this medium was added glucose in the concentrations shown in Table 12 below, and the cells were incubated for various times.

daughter-islet cells = assay: Daughter islet cell insulin secretion in response to glucose, RIA (Example 25); assay type: cell-based, human; details: for Secreted Insulin: 17 months of culture, one hour
Experimental: The daughter-islets were obtained as progeny arising through cell division from islet cells in the cultured whole islets obtained as isolates from human pancreases. After 17 months of culture the daughter-islet cells were analyzed for their ability to secrete insulin in response to physiological levels of glucose. Formula VI, as described in Examples 22 and 24 with designated glucose concentrations of 2 mM (Basal level), 7.6 mM (Maintence level), 12 mM and 22 mM was used for the experiment. Care was taken to control the osmolarity of each medium to the range of 260-268 mOsm so that no strong osmotic shock was administered to the daughter-islet cells. The cells were washed 5 times, at 20 minutes each wash, with the basal level medium (2 mM glucose level) before the experiment. Each group of 5 daughter-islet was placed in 1 ml of the test medium and incubated at 37° C., with 5% CO2/5% O2/90% N2, for one hour. The medium was collected for assay and new medium containing 7.6 mM glucose was added. The one hour incubation, using the same conditions was then repeated. Those steps were repeated for the challenges with medium containing 12 mM and 22 mM glucose. Analysis of insulin secretion levels was done by RIA as described in Example 24.

With `O=C[C@H](O)[C@@H](O)[C@H](O)[C@H](O)CO` [glucose, D(+)glucose] the Insulin secreted ([1]; 1 mM glucose added, 1 hr) was 275 μIU Insulin secreted/1.5 milli, the Insulin secreted ([1]; 1 mM glucose added, 2 hr) was 363 μIU Insulin secreted/1.5 milli and the Insulin secreted ([1]; 1 mM glucose added, 3 hr) was 451 μIU Insulin secreted/1.5 milli. For the same molecule, the Insulin secreted ([1]; 1 mM glucose added, 5 hr) was 564 μIU Insulin secreted/1.5 milli, the Insulin secreted ([1]; 1 mM glucose added, 7 hr) was 582 μIU Insulin secreted/1.5 milli and the Insulin secreted ([1]; 1 mM glucose added, 24 hr) was 812 μIU Insulin secreted/1.5 milli. The Insulin secreted ([1]; 5.6 mM glucose added, 1 hr) was 3413 μIU Insulin secreted/1.5 milli, the Insulin secreted ([1]; 5.6 mM glucose added, 2 hr) was 982 μIU Insulin secreted/1.5 milli and the Insulin secreted ([1]; 5.6 mM glucose added, 3 hr) was 999 μIU Insulin secreted/1.5 milli. For the same molecule, the Insulin secreted ([1]; 5.6 mM glucose added, 5 hr) was 2383 μIU Insulin secreted/1.5 milli, the Insulin secreted ([1]; 5.6 mM glucose added, 7 hr) was 2718 μIU Insulin secreted/1.5 milli and the Insulin secreted ([1]; 5.6 mM glucose added, 24 hr) was 2760 μIU Insulin secreted/1.5 milli. The Insulin secreted ([1]; 11.0 mM glucose added, 1 hr) was 3376 μIU Insulin secreted/1.5 milli, the Insulin secreted ([1]; 11.0 mM glucose added, 2 hr) was 1768 μIU Insulin secreted/1.5 milli and the Insulin secreted ([1]; 11.0 mM glucose added, 3 hr) was 2220 μIU Insulin secreted/1.5 milli. For the same molecule, the Insulin secreted ([1]; 11.0 mM glucose added, 5 hr) was 1184 μIU Insulin secreted/1.5 milli, the Insulin secreted ([1]; 11.0 mM glucose added, 7 hr) was 3202 μIU Insulin secreted/1.5 milli and the Insulin secreted ([1]; 11.0 mM glucose added, 24 hr) was 1276 μIU Insulin secreted/1.5 milli. For the same molecule, the Insulin secreted ([1]; 16.5 mM glucose added, 1 hr) was 3716 μIU Insulin secreted/1.5 milli, the Insulin secreted ([1]; 16.5 mM glucose added, 2 hr) was 2415 μIU Insulin secreted/1.5 milli and the Insulin secreted ([1]; 16.5 mM glucose added, 3 hr) was 2450 μIU Insulin secreted/1.5 milli. For the same molecule, the Insulin secreted ([1]; 16.5 mM glucose added, 5 hr) was 2589 μIU Insulin secreted/1.5 milli, the Insulin secreted ([1]; 16.5 mM glucose added, 7 hr) was 4039 μIU Insulin secreted/1.5 milli and the Insulin secreted ([1]; 16.5 mM glucose added, 24 hr) was 2099 μIU Insulin secreted/1.5 milli. For the same molecule, the Insulin secreted ([1]; 22 mM glucose added, 1 hr) was 2538 μIU Insulin secreted/1.5 milli, the Insulin secreted ([1]; 22 mM glucose added, 2 hr) was 1845 μIU Insulin secreted/1.5 milli and the Insulin secreted ([1]; 22 mM glucose added, 3 hr) was 2066 μIU Insulin secreted/1.5 milli. The Insulin secreted ([1]; 22 mM glucose added, 5 hr) was 1722 μIU Insulin secreted/1.5 milli, the Insulin secreted ([1]; 22 mM glucose added, 7 hr) was 1320 μIU Insulin secreted/1.5 milli and the Insulin secreted ([1]; 22 mM glucose added, 24 hr) was 989 μIU Insulin secreted/1.5 milli. For the same molecule, the Insulin secreted ([1]; 33 mM glucose added, 1 hr) was 972 μIU Insulin secreted/1.5 milli, the Insulin secreted ([1]; 33 mM glucose added, 2 hr) was 345 μIU Insulin secreted/1.5 milli and the Insulin secreted ([1]; 33 mM glucose added, 3 hr) was 446 μIU Insulin secreted/1.5 milli. The Insulin secreted ([1]; 33 mM glucose added, 5 hr) was 657 μIU Insulin secreted/1.5 milli, the Insulin secreted ([1]; 33 mM glucose added, 7 hr) was 1109 μIU Insulin secreted/1.5 milli and the Insulin secreted ([1]; 33 mM glucose added, 24 hr) was 1073 μIU Insulin secreted/1.5 milli. The “glucose concentration of maximal response” value ([1]; glucose-starved cells, 1 to 24 hr) was 16.5 mM, the “Secreted Insulin” value (daughter-islet cells; 12 mM glucose) was 38.6 μIU/ml/hour/10^3 cells and the “Secreted Insulin” value (daughter-islet cells; 22 mM glucose) was 144.5 μIU/ml/hour/10^3 cells. For the same molecule, the “maximal response relative to the basal level” value (daughter-islet cells; basal level 0.3 at 2 mM glucose) was 482 times.
